Source: patent US20250101003A1, “SPIROCYCLIC CAV2.3 ANTAGONISTS” (LARIO THERAPEUTICS LIMITED, priority 2021, published 2025)

Target: Cav2.3 (Homo sapiens, UniProt Q15878)
Test: Human Cav2.3 channel calcium-influx assay
Format: cell-based
Conditions: HEK-293 T-Rex/Kir2.1/Cav2.3e-β4-α2δ1 cells, Fluo8 fluorescence, without pluronic acid; read-out: Cav2.3 (pIC50) (converted)
Experimental: HEK-293 T-Rex cells were transfected with pcDNA3.1-Kir2.1 to generate a stable cell line. After antibiotic selection, the obtained stable pools were analysed using FLIPR^TETRA (membrane potential assay), and a limiting dilution was performed and a HEK-293 T-Rex/Kir2.1 clone was selected. The clone was transfected with pcDNA3.1-Cav2.3e and pBud-Cav-β4-α2δ1 to generate a stable cell line where the Cav2.3e expression is inducible. After antibiotic selection, functional clone pool analysis and two successive limiting dilutions, the final clone underwent a qPCR analysis and a biophysical and pharmacological validation using patch-clamp.
A compound plate, containing 10 test compounds in eight-points dose response with n=4, was prepared. Test compounds dose response curves were prepared in automated fashion in 100% DMSO at CyBio Felix and starting from a stock solution in 100% DMSO; a defined volume was serially moved into destination wells pre-filled with the desired DMSO volume; stock solution concentration volumes were dependent on the final compounds concentrations to be tested and the final DMSO content used in the assay. For the assay test compounds dose response curves ranged from 30 μM and half log dilution with 0.3% final DMSO. In order to obtain the 8-points dose response curve all the concentrations were created by starting from a 10 mM DMSO stock solution and then moving 9.5 μL into a destination well pre-filled with 20.5 μL of 100% DMSO and repeating this step seven times. This initial step was done into 96 MTP plates, 10 compounds/plate. One 384 MTP was then reformatted to contain all the 10 compounds at 8 concentrations, quadruplicate data points. This so obtained 384 MTP compound plate served as source plate in a “mother to child” process with a CyBi®-Well dispenser in which 0.7 μL of compounds were moved into a destination plate pre-filled with 57.6 μL of Tyrode's buffer 0 mM K+, thus obtaining 4× concentrated compounds solution. In columns 1-2 and 23-24 the control wells were added. Both “source” compound plate and “destination” compound plate were barcoded and a relationship between the two plates was thus generated.
The day before the experiment, cells were detached by gentle wash with DPBS, followed by 5 min incubation at 37° C. with Trypsin solution. Detached cells were diluted with OptiMEM+Doxycycline at 0.2 μg/mL, counted and plated in Poly-D-Lysine coated black/clear bottom (15.000 c/well in 20 μl/well) by the use of a MATRIX WellMate dispenser. Plates were placed into a humidified incubator at 37° C. with 5% CO2 until the experimental day. 24 h after seeding 10 μL/well of 1.5× Fluo8 NW dye solution prepared in Tyrode's buffer 0 mM K^+ were added on top of the seeding medium. Cell plates were incubated for 40-60 min at RT in the dark. We then Injected off-line 10 μL/well of test compounds and controls 4× concentrated in Tyrode's Buffer 0 mM K+ with the CyBi®-Well instrument. Cell plates were incubated 3 minutes at RT. Finally, we injected 20 μL/well of 3× concentrated activator solution (K20-Na130-Ca2 buffer: 20 mM KCl, 130 mM NaCl, 2 mM CaCl2, 10 mM HEPES, 10 mM Glucose, final concentrations, prepared starting from “KO-Na150-Ca2” and “K150-Na0-Ca2” buffers) at FDSS7000EX instrument and read emitted fluorescence for 130 seconds.
Data analysis was performed with Genedata Screener® software and reported compounds activity as % effect in relation to the normalization standards. The Kinetic Response Value (KRV) is calculated as follows:
KRV=Maximal fluorescence recorded from second 5 to second 130 minus baseline fluorescence, computed as average from second 1 to second 2, of the kinetic trace. The KRV was normalized versus Neutral Controls and Inhibitor Controls in order to obtain the Activity[%] for each well. […] Therefore, the compound activity values were scaled (based on the two references) to a common range (two-point normalization). […]

Cav2.3, sequence (Q15878 1-747 limits assumed): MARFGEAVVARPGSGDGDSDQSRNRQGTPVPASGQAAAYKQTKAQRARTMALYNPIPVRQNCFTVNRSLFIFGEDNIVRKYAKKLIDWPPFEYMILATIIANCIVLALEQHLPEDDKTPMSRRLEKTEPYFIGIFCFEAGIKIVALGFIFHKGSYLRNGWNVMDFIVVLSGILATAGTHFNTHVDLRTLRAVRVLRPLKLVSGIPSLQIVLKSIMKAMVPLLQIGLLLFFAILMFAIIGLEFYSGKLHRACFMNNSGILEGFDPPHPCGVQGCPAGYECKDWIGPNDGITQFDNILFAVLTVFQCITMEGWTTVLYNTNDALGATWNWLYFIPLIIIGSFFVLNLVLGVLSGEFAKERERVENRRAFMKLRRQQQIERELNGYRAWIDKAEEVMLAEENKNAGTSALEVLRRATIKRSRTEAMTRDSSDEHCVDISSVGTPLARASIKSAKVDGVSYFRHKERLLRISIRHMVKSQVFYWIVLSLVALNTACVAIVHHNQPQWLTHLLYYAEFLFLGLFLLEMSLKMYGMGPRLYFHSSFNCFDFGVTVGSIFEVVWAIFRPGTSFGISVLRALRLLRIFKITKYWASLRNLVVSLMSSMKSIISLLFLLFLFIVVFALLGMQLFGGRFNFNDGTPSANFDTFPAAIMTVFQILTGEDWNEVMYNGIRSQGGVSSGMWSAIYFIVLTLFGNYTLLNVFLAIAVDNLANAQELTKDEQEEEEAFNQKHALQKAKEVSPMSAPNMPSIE
Cav2.3, sequence (Q15878 1126-2313 limits assumed): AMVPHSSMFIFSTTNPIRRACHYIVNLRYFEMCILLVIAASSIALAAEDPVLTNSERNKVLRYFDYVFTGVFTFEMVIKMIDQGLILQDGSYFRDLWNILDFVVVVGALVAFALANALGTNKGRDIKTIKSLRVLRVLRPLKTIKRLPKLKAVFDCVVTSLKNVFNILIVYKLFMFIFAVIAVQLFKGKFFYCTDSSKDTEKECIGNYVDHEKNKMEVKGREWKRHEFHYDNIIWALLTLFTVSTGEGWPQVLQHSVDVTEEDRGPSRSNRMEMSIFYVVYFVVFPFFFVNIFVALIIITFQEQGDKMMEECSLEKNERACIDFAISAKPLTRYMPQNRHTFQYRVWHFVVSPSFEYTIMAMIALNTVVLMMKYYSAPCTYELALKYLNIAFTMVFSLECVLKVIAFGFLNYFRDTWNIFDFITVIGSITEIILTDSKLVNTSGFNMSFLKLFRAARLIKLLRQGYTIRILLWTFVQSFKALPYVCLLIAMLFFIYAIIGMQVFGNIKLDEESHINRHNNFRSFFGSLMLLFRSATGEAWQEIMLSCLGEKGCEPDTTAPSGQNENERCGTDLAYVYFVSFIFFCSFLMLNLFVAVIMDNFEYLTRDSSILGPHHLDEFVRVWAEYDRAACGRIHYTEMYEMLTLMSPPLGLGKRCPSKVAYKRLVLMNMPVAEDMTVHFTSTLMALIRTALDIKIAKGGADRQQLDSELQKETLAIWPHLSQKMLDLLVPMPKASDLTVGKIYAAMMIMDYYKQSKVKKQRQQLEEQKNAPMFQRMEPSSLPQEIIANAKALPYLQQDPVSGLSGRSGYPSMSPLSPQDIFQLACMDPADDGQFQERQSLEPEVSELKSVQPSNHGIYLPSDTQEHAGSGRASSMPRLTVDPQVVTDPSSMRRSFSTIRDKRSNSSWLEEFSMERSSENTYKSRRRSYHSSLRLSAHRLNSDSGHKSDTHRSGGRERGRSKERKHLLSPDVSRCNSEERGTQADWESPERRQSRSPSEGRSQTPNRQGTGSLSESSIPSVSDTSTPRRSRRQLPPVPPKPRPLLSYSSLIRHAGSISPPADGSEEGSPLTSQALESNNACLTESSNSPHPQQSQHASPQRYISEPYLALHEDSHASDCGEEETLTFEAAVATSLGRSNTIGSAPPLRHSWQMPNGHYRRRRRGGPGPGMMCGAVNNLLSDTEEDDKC

Compound | IC50 [µM]
CC1(C)CC2(CCC2)CN1S(=O)(=O)c1ccsc1 [Example 49, 7,7-Dimethyl-6-(thiophen-3-ylsulfonyl)-6-azaspiro[3.4]octane] | 3.89
O=S(=O)(c1cccs1)N1CC2(CCC2)CC1CO (stereo not drawn) [Example 42, (6-(Thiophen-2-ylsulfonyl)-6-azaspiro[3.4]octan-7-yl)methanol] | 24.5
CCC1CC2(CCC2)CN1S(=O)(=O)c1ccc2c(c1)S(=O)(=O)CC2 (stereo not drawn) [Example 61, 6-((7-Ethyl-6-azaspiro[3.4]octan-6-yl)sulfonyl)-2,3-dihydrobenzo[b]thiophene 1,1-dioxide] | 1.78
CC(=O)N1CCc2ccc(S(=O)(=O)N3CC4(CCC4)CC3C)cc2C1 (stereo not drawn) [Example 94, 1-(7-((7-Methyl-6-azaspiro[3.4]octan-6-yl)sulfonyl)-3,4-dihydroisoquinolin-2(1H)-yl)ethan-1-one] | 2
CCC1CC2(CCC2)CN1S(=O)(=O)c1ccc2ccsc2c1 (stereo not drawn) [Example 35, 6-(Benzo[b]thiophen-6-ylsulfonyl)-7-ethyl-6-azaspiro[3.4]octane] | 3.8
CCC1CC2(CCC2)CN1S(=O)(=O)c1ccnc(OC)c1 (stereo not drawn) [Example 87, 7-Ethyl-6-((2-methoxypyridin-4-yl)sulfonyl)-6-azaspiro[3.4]octane] | 2
Cc1nc(C)c(S(=O)(=O)N2CC3(CCC3)CC2C)s1 (single isomer, unassigned) [Example 106, 2,4-Dimethyl-5-((7-methyl-6-azaspiro[3.4]octan-6-yl)sulfonyl)thiazole] | 2.19
CC1CC2(CCC2)CN1S(=O)(=O)c1ccccc1 (stereo not drawn) [Example 45, 7-Methyl-6-(phenylsulfonyl)-6-azaspiro[3.4]octane] | 3.39
CC1CC2(CCC2)CN1S(=O)(=O)c1ccc2[nH]c(=O)[nH]c2c1 (stereo not drawn) [Example 59, 5-((7-Methyl-6-azaspiro[3.4]octan-6-yl)sulfonyl)-1,3-dihydro-2H-benzo[d]imidazol-2-one] | 11.2
CCC1CC2(CCC2)CN1S(=O)(=O)c1ccc2c(c1)S(=O)(=O)CC2 (single isomer, unassigned) [Example 63, 6-((7-ethyl-6-azaspiro[3.4]octan-6-yl)sulfonyl)-2,3-dihydrobenzo[b]thiophene 1,1-dioxide] | 5.62
CC1CC2(CCC2)CN1S(=O)(=O)c1nc2ccccc2s1 (stereo not drawn) [Example 67, 2-((7-Methyl-6-azaspiro [3.4]octan-6-yl)sulfonyl)benzo[d]thiazole] | 9.77
CC1CC2(CCC2)CN1S(=O)(=O)c1cc2oc(=O)[nH]c2cc1Cl (single isomer, unassigned) [Example 57, 5-Chloro-6-((7-methyl-6-azaspiro[3.4]octan-6-yl)sulfonyl)benzo[d]oxazol-2(3H)-one] | 5.13
CCC1CC2(CCC2)CN1S(=O)(=O)c1ccnc(C)c1 (stereo not drawn) [Example 92, 7-Ethyl-6-((2-methylpyridin-4-yl)sulfonyl)-6-azaspiro[3.4]octane] | 2.45
Cc1ccnc2cc(S(=O)(=O)N3CC4(CCC4)CC3C)ccc12 (single isomer, unassigned) [Example 81, 4-Methyl-7-((7-methyl-6-azaspiro[3.4]octan-6-yl)sulfonyl)quinoline] | 4.57
CC1CC2(CCC2)CN1S(=O)(=O)c1ccccc1 (single isomer, unassigned) [Example 46, 7-Methyl-6-(phenylsulfonyl)-6-azaspiro[3.4]octane] | 7.76
CC1CC2(CCC2)CN1S(=O)(=O)c1cc2oc(=O)[nH]c2cc1Cl (single isomer, unassigned) [Example 58, 5-chloro-6-((7-methyl-6-azaspiro[3.4]octan-6-yl)sulfonyl)benzo[d]oxazol-2(3H)-one] | 11.5
CC1CC2(CCC2)CN1S(=O)(=O)Cc1ccccc1 (stereo not drawn) [Example 2, 6-(Benzylsulfonyl)-7-methyl-6-azaspiro[3.4]octane] | 4.27

Compound | IC50 [µM]
CC1CC2(CCC2)CN1S(=O)(=O)c1cc2oc(=O)[nH]c2cc1Cl (stereo not drawn) [Example 56, 5-Chloro-6-((7-methyl-6-azaspiro[3.4]octan-6-yl)sulfonyl)benzo[d]oxazol-2(3H)-one] | 8.32
CCC1CC2(CCC2)CN1S(=O)(=O)c1ccc2c(c1)S(=O)(=O)CC2 (single isomer, unassigned) [Example 62, 6-((7-Ethyl-6-azaspiro[3.4]octan-6-yl)sulfonyl)-2,3-dihydrobenzo[b]thiophene 1,1-dioxide] | 0.676
CC1CC2(CCC2)CN1S(=O)(=O)c1ccc2c(c1)OCCO2 (stereo not drawn) [Example 5, 6-((2,3-Dihydrobenzo[b][1,4]dioxin-6-yl)sulfonyl)-7-methyl-6-azaspiro[3.4]octane] | 2.95
CC1CC2(CCC2)CN1S(=O)(=O)c1cncc(C#N)c1 (stereo not drawn) [Example 111, 5-((7-methyl-6-azaspiro[3.4]octan-6-yl)sulfonyl)nicotinonitrile] | 1.95
CC1CC2(CCC2)CN1S(=O)(=O)c1cccc2c1CN(C(=O)C(F)(F)F)CC2 (stereo not drawn) [Example 85, 2,2,2-Trifluoro-1-(8-((7-methyl-6-azaspiro[3.4]octan-6-yl)sulfonyl)-3,4-dihydroisoquinolin-2(1H)-yl)ethan-1-one] | 19.1
CCC1CC2(CCC2)CN1S(=O)(=O)c1ccco1 (stereo not drawn) [Example 72, 7-Ethyl-6-(furan-2-ylsulfonyl)-6-azaspiro[3.4]octane] | 4.37
CC1CC2(CCC2)CN1S(=O)(=O)c1ccncc1 (single isomer, unassigned) [Example 12, 7-Methyl-6-(pyridin-4-ylsulfonyl)-6-azaspiro[3.4]octane] | 6.61
CCOC(=O)N1CCc2ccc(S(=O)(=O)N3CC4(CCC4)CC3C)cc2C1 (single isomer, unassigned) [Example 24, Ethyl 7-((7-methyl-6-azaspiro[3.4]octan-6-yl)sulfonyl)-3,4-dihydroisoquinoline-2(1H)-carboxylate] | 1.62
CC1CC2(CCC2)CN1S(=O)(=O)c1ccncc1 (single isomer, unassigned) [Example 13, 7-methyl-6-(pyridin-4-ylsulfonyl)-6-azaspiro[3.4]octane] | 1.66
CCC1CC2(CCCC2)CN1S(=O)(=O)c1ccc2c(c1)CN(C(=O)C(F)(F)F)CC2 (stereo not drawn) [Example 101, 1-(7-((3-Ethyl-2-azaspiro[4.4]nonan-2-yl)sulfonyl)-3,4-dihydroisoquinolin-2(1H)-yl)-2,2,2-trifluoroethan-1-one] | 2.45
Cc1ccnc2cc(S(=O)(=O)N3CC4(CCC4)CC3C)ccc12 (single isomer, unassigned) [Example 82, 4-methyl-7-((7-methyl-6-azaspiro[3.4]octan-6-yl)sulfonyl)quinoline] | 10.7
CC1CC2(CCCC2)CN1S(=O)(=O)c1cccs1 (stereo not drawn) [Example 73, 3-Methyl-2-(thiophen-2-ylsulfonyl)-2-azaspiro[4.4]nonane] | 1.7
CC1CC2(CCC2)CN1S(=O)(=O)c1ccc2c(c1)CCN(Cc1ccccc1)C2 (stereo not drawn) [Example 25, 2-Benzyl-6-((7-methyl-6-azaspiro[3.4]octan-6-yl)sulfonyl)-1,2,3,4-tetrahydroisoquinoline] | 2.95
Cc1ccc(S(=O)(=O)N2CC3(CCC3)CC2C)s1 (stereo not drawn) [Example 76, 7-Methyl-6-((5-methylthiophen-2-yl)sulfonyl)-6-azaspiro[3.4]octane] | 7.94
CC1CC2(CCC2)CN1S(=O)(=O)c1cnccn1 (stereo not drawn) [Example 39, 7-methyl-6-(pyrazin-2-ylsulfonyl)-6-azaspiro[3.4]octane] | 10.7
CC1CC2(CCC2)CN1S(=O)(=O)c1scnc1CO (stereo not drawn) [Example 90, (5-((7-Methyl-6-azaspiro[3.4]octan-6-yl)sulfonyl)thiazol-4-yl)methanol] | 11.2
